# Article PMC12016938, “A small molecule PKCε inhibitor reduces hyperalgesia induced by paclitaxel or opioid withdrawal” (JCI Insight, 2025)
# Values joined by “and” are separate entries in the source; they are usually repeats but may differ in a detail not shown here. Identical values can stand only once. Counter-ions that a name gives are not always drawn.
# System: self-administration (addictive potential)
# Test: I.v. self-administration of CP612, between-session progressive ratio and demand curve
# Description: We tested the addictive potential of CP612 by examining the extent to which rats are willing to work to obtain CP612. Rats were initially trained to self-administer either saline, morphine (500 μg/kg/i.v. infusion), or 1 of 3 different doses of CP612 (75, 150, or 300 μg/kg/i.v. infusion) for 4 days at fixed ratio 1 (FR1, where 1 nose poke delivers 1 infusion).
# During the second phase, the ratio to obtain an infusion increased geometrically every other day (FR1, FR3, FR6, FR12, FR24, FR48, and FR96).
# Data (number of self-infusions) were also fitted in an economic-demand curve, which provides an estimate of the motivation to obtain drugs and their addictive potential ([20]). We measured elasticity (α), which is the relative change in consumption as a function of price (i.e., ratio of nose pokes required to obtain an infusion). Behavior is considered “inelastic” when consumption is insensitive to price and “elastic” when consumption is sensitive to price. We also measured Pmax, which is the price at which intake switches from inelastic to elastic. […] (Figure 8B).
# Rats not immediately anesthetized were eliminated from the study.
# Following this initial acquisition phase at FR1, the ratio to obtain the drug was increased geometrically every other day: FR3 (3 nose pokes are required to obtain 1 infusion of morphine), FR6, FR12, FR24, FR48, and FR96. This allows for analysis of drug consumption as a function of “price” using demand curves for behavioral economics, which can estimate the motivation to obtain drugs and their “addictive potential” ([20]). For this, data from each rat were fitted to the equation log Q = log Q0 + k (e ^–α(Q0 ^C) – 1), where Q represents consumption (number of self-infusions), and Q0 represents the level of consumption at the lowest price. C represents price for the drug (i.e., the ratio), and k is set to a constant accounting for the estimated range of consumption in logarithmic units (k = 4 in these studies). The symbol α is the relative change in consumption across changes in price (ratio). Behavior is considered “inelastic” when consumption is insensitive to price (i.e., the curve is flat, and consumption is maintained despite increases in price), and it switches to “elastic” when consumption is sensitive to price (i.e., when the curve is steep and consumption declines with increases in price). […] We also compared groups for their average intake in the consumption-price curves by measuring α (elasticity) and Pmax.
# [1] = morphine, individual rats, column in the AH block
smiles,measurement,setting,value
"CN1CC[C@]23c4c5ccc(O)c4O[C@H]2[C@@H](O)C=C[C@H]3[C@H]1C5 [Morphine, Morphine sulfate, reference compound]",AVG Latency (FR3),"morphine, individual rats",0.17 and 0.173 and 1.3 and 0.2 and 0.6 and 1.9
same,AVG Latency (FR6),"morphine, individual rats",1.3 and 0.175 and 0.8 and 2.9 and 1.1 and 1.4
same,AVG Latency (FR12),"morphine, individual rats",0.435 and 0.663 and 0.7 and 0.227 and 2.8 and 2.7
same,AVG Latency (FR24),"morphine, individual rats",1.2 and 0.75 and 0.9 and 0.754 and 0.6 and 2.4
same,AVG Latency (FR48),"morphine, individual rats",0.8 and 0.428 and 0.738 and 0.951 and 1.0
same,AVG Latency (FR96),"morphine, individual rats",0.9 and 0.7 and 1.4 and 0.6 and 1.6
same,D1 AH (FR1),"morphine, individual rats",15 and 13 and 16 and 19 and 12
same,D1 AH (FR3),"morphine, individual rats",44 and 27 and 25 and 19 and 17 and 29
same,D1 AH (FR6),"morphine, individual rats",38 and 54 and 48 and 37 and 30 and 17
same,D1 AH (FR12),"morphine, individual rats",76 and 90 and 97 and 95 and 40 and 39
same,D1 AH (FR24),"morphine, individual rats",167 and 144 and 79 and 198 and 125 and 58
same,D1 AH (FR48),"morphine, individual rats",269 and 254 and 72 and 297 and 145 and 69
same,D1 AH (FR96),"morphine, individual rats",243 and 334 and 76 and 204 and 237 and 36
same,D1 IH (FR1),"morphine, individual rats",11 and 22 and 18 and 9 and 7
same,D1 IH (FR3),"morphine, individual rats",16 and 9 and 5 and 2 and 13 and 11
same,D1 IH (FR6),"morphine, individual rats",3 and 5 and 7 and 18 and 10
same,D1 IH (FR12),"morphine, individual rats",10 and 5 and 16 and 3 and 7
same,D1 IH (FR24),"morphine, individual rats",14 and 6 and 19 and 5 and 10
same,D1 IH (FR48),"morphine, individual rats",8 and 18 and 11 and 9 and 7 and 12
same,D1 IH (FR96),"morphine, individual rats",9 and 26 and 16 and 12 and 28
same,D1 Inf (FR1),"morphine, individual rats",9 and 8 and 12 and 10
same,D1 Inf (FR3),"morphine, individual rats",11 and 8 and 5 and 4
same,D1 Inf (FR6),"morphine, individual rats",6 and 7 and 4 and 2
same,D1 Inf (FR12),"morphine, individual rats",6 and 7 and 3
same,D1 Inf (FR24),"morphine, individual rats",6 and 5 and 3 and 8 and 4 and 2
same,D1 Inf (FR48),"morphine, individual rats",5 and 1 and 2
same,D1 Inf (FR96),"morphine, individual rats",2 and 3 and 0
same,D1 Latency (FR1),"morphine, individual rats",9.3 and 15.1 and 26.3 and 3.9 and 5.9 and 0.853
same,D1 Latency (FR3),"morphine, individual rats",0.238 and 0.2 and 1.5 and 0.9 and 0.358
same,D1 Latency (FR6),"morphine, individual rats",0.072 and 0.225 and 1.0 and 0.4 and 0.178 and 1.6
same,D1 Latency (FR12),"morphine, individual rats",0.038 and 1.0 and 0.6 and 0.032 and 1.6 and 1.2
same,D1 Latency (FR24),"morphine, individual rats",1.5 and 0.075 and 0.5 and 0.328 and 0.538 and 3.9
same,D1 Latency (FR48),"morphine, individual rats",0.107 and 0.4 and 0.5 and 1.0 and 1.4 and 1.2
same,D1 Latency (FR96),"morphine, individual rats",0.7 and 0.8 and 1.4 and 0.438 and 2.3
same,D2 AH (FR1),"morphine, individual rats",16 and 10 and 8 and 18 and 17
same,D2 AH (FR3),"morphine, individual rats",43 and 31 and 37 and 17 and 20 and 19
same,D2 AH (FR6),"morphine, individual rats",49 and 53 and 43 and 40 and 32 and 25
same,D2 AH (FR12),"morphine, individual rats",48 and 86 and 32 and 113 and 38 and 44
same,D2 AH (FR24),"morphine, individual rats",162 and 155 and 80 and 176 and 120 and 64
same,D2 AH (FR48),"morphine, individual rats",196 and 251 and 75 and 213 and 125 and 57
same,D2 AH (FR96),"morphine, individual rats",164 and 368 and 38 and 192 and 184 and 36
same,D2 IH (FR1),"morphine, individual rats",9 and 4 and 12 and 6 and 11
same,D2 IH (FR3),"morphine, individual rats",4 and 6 and 12 and 14 and 17 and 7
same,D2 IH (FR6),"morphine, individual rats",10 and 9 and 13 and 8 and 12
same,D2 IH (FR12),"morphine, individual rats",12 and 14 and 22 and 7 and 1
same,D2 IH (FR24),"morphine, individual rats",8 and 14 and 11 and 10 and 7
same,D2 IH (FR48),"morphine, individual rats",9 and 13 and 27 and 12 and 14
same,D2 IH (FR96),"morphine, individual rats",8 and 11 and 15 and 13 and 24
same,D2 Inf (FR1),"morphine, individual rats",11 and 9 and 7 and 10 and 12
same,D2 Inf (FR3),"morphine, individual rats",10 and 9 and 11 and 5
same,D2 Inf (FR6),"morphine, individual rats",8 and 7 and 6 and 4
same,D2 Inf (FR12),"morphine, individual rats",4 and 6 and 2 and 9 and 3
same,D2 Inf (FR24),"morphine, individual rats",6 and 3 and 7 and 4 and 2
same,D2 Inf (FR48),"morphine, individual rats",4 and 5 and 1 and 2
same,D2 Inf (FR96),"morphine, individual rats",1 and 3 and 0
same,D2 Latency (FR1),"morphine, individual rats",0.152 and 0.662 and 1.3 and 0.455 and 0.133 and 2.0
same,D2 Latency (FR3),"morphine, individual rats",0.1 and 0.137 and 1.1 and 0.19 and 0.327 and 3.5
same,D2 Latency (FR6),"morphine, individual rats",2.5 and 0.125 and 0.7 and 5.3 and 1.9 and 1.1
same,D2 Latency (FR12),"morphine, individual rats",0.8 and 0.372 and 0.7 and 0.422 and 4.1
same,D2 Latency (FR24),"morphine, individual rats",0.9 and 1.4 and 1.3 and 1.2 and 0.7 and 0.8
same,D2 Latency (FR48),"morphine, individual rats",1.4 and 0.457 and 1.0 and 0.9 and 0.543 and 0.367
same,D2 Latency (FR96),"morphine, individual rats",1.1 and 0.555 and 1.4 and 0.748 and 0.66 and 1.0
same,D3 AH (FR1),"morphine, individual rats",24 and 13 and 8 and 20 and 17
same,D3 IH (FR1),"morphine, individual rats",18 and 4 and 15 and 3 and 20 and 8
same,D3 Inf (FR1),"morphine, individual rats",10 and 7 and 14
same,D3 Latency (FR1),"morphine, individual rats",0.3 and 0.137 and 7.8 and 0.352 and 0.9 and 0.327
same,D4 AH (FR1),"morphine, individual rats",23 and 12 and 13 and 17 and 15
same,D4 IH (FR1),"morphine, individual rats",3 and 5 and 8 and 6 and 9
same,D4 Inf (FR1),"morphine, individual rats",13 and 10 and 11 and 9 and 8
same,D4 Latency (FR1),"morphine, individual rats",0.06 and 0.143 and 4.0 and 0.342 and 1.1
same,last AH (FR1),"morphine, individual rats",21 and 12 and 18 and 22 and 14 and 10
same,last IH (FR1),"morphine, individual rats",4 and 1 and 3 and 7 and 9
same,last Inf (FR1),"morphine, individual rats",15 and 10 and 12 and 17 and 9 and 7
same,last Latency (FR1),"morphine, individual rats",0.5 and 0.7 and 2.0 and 0.017 and 0.4 and 1.1
same,last-1 AH (FR1),"morphine, individual rats",23 and 12 and 13 and 17 and 15
same,last-1 IH (FR1),"morphine, individual rats",3 and 5 and 8 and 6 and 9
same,last-1 Inf (FR1),"morphine, individual rats",13 and 10 and 11 and 9 and 8
same,last-1 Latency (FR1),"morphine, individual rats",0.06 and 0.143 and 4.0 and 0.342 and 1.1
same,last-2 AH (FR1),"morphine, individual rats",24 and 13 and 8 and 20 and 17
same,last-2 IH (FR1),"morphine, individual rats",18 and 4 and 15 and 3 and 20 and 8
same,last-2 Inf (FR1),"morphine, individual rats",10 and 7 and 14
same,last-2 Latency (FR1),"morphine, individual rats",0.3 and 0.137 and 7.8 and 0.352 and 0.9 and 0.327
same,last-3 AH (FR1),"morphine, individual rats",24 and 13 and 8 and 18 and 10 and 17
same,last-3 IH (FR1),"morphine, individual rats",18 and 4 and 12 and 6 and 11
same,last-3 Inf (FR1),"morphine, individual rats",10 and 7 and 11 and 12
same,last-3 Latency (FR1),"morphine, individual rats",0.3 and 0.137 and 1.3 and 0.455 and 0.133 and 2.0
same,AVG Inf (FR1_D1 to D4),[1],19.5 and 12.0 and 11.0 and 16.8 and 14.8 and 15.3
same,AVG Inf (FR1_Last 2 FR1 days),[1],22.0 and 12.0 and 15.5 and 17.5 and 12.5
same,AVG Inf (FR1_Last 4 FR1 days),[1],23.0 and 12.5 and 11.8 and 18.3 and 13.5 and 14.8
same,AVG AH (FR3),per-rat average,24.0 and 20.5 and 23.0
same,AVG AH (FR6),per-rat average,55.0 and 42.0 and 46.5
same,AVG AH (FR12),per-rat average,107.5 and 82.0 and 88.0
same,AVG AH (FR24),per-rat average,143.0 and 145.0 and 172.0
same,AVG AH (FR48),per-rat average,138.0 and 149.0 and 142.5
same,AVG AH (FR96),per-rat average,116.5 and 141.0 and 156.0
same,AVG IH (FR1_Last 2 FR1 days),per-rat average,1.5 and 3.0
same,AVG IH (FR6),per-rat average,4.5 and 8.5 and 7.5
same,AVG IH (FR48),per-rat average,16.0 and 12.0 and 23.5
same,AVG Inf (FR1_D1 to D4),per-rat average,6.0 and 7.3 and 9.3
same,AVG Inf (FR1_Last 2 FR1 days),per-rat average,6.5 and 7.5
same,AVG Inf (FR1_Last 4 FR1 days),per-rat average,6.0 and 7.0 and 8.3
same,AVG Inf (FR3),per-rat average,7.5 and 5.5 and 7.0
same,AVG Inf (FR6),per-rat average,8.0 and 6.5 and 7.0
same,AVG Inf (FR12),per-rat average,8.5 and 5.5 and 6.5
same,AVG Inf (FR24),per-rat average,5.0 and 5.5 and 6.5
same,AVG Inf (FR48),per-rat average,2.5
same,AVG Inf (FR96),per-rat average,1.0
same,AVG Latency (FR1_D1 to D4),per-rat average,0.7 and 1.3 and 0.8
same,AVG Latency (FR3),per-rat average,0.3 and 0.6 and 0.339
same,AVG Latency (FR96),per-rat average,0.8 and 0.7 and 0.9
